Test results as given in article PMC6199744, “Development of Chemical Proteomics for the Folateome and Analysis of the Kinetoplastid Folateome” (ACS Infectious Diseases, 2018).
Where two headings read alike, the source gives them in different places.

Columns and labels:
Format in all cases: binding
[1] = molecular target: T1, HeLa cell extract proteins (Homo sapiens, UniProt P14868)
T1 construct: endogenous in cells; host or cells: HeLa cell extract
T1 sequence (P14868 1-501): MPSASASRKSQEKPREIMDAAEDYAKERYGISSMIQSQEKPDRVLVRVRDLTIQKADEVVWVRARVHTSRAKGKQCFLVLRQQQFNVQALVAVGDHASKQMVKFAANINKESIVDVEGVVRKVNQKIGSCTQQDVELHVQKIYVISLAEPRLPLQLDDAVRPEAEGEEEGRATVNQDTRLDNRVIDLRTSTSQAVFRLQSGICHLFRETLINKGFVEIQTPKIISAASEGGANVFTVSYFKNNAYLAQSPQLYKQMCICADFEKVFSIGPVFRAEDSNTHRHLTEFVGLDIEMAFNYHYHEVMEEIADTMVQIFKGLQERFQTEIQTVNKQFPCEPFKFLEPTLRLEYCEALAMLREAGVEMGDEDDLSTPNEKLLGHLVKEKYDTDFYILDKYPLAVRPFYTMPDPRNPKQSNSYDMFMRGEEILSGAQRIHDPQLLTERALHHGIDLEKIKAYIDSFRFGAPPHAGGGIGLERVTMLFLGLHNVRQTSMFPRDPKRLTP

[2] = molecular target: T2, HeLa cell extract proteins (Homo sapiens, UniProt P53618)
T2 construct: endogenous in cells; host or cells: HeLa cell extract
T2 sequence (P53618 1-953): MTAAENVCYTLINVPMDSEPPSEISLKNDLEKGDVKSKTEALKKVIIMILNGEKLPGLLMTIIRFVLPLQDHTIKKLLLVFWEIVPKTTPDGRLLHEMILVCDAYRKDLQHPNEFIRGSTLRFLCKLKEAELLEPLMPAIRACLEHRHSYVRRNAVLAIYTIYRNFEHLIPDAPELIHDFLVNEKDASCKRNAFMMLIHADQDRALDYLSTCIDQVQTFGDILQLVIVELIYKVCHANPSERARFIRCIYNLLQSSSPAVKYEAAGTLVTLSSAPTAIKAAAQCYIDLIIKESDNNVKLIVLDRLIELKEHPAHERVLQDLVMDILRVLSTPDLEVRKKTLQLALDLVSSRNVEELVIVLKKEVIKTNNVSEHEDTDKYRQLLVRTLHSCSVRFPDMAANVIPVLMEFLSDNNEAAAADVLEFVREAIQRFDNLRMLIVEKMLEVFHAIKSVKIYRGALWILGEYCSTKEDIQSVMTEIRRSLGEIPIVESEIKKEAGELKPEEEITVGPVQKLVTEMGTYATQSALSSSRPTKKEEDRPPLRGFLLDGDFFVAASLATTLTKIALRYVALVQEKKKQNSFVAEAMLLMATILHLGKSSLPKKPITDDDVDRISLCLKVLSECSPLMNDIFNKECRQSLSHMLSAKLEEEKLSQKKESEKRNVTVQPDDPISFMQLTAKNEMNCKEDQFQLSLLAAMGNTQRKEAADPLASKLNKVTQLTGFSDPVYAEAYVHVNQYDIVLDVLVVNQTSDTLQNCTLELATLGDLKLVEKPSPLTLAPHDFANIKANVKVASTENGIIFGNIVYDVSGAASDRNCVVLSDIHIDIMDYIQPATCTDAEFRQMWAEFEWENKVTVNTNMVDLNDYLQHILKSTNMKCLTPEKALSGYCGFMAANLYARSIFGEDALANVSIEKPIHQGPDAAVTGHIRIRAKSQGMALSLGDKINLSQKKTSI

[3] = molecular target: T3, HeLa cell extract proteins (Homo sapiens, UniProt P23284)
T3 construct: endogenous in cells; host or cells: HeLa cell extract

[4] = molecular target: T4, HeLa cell extract proteins (Homo sapiens, UniProt P62826)
T4 construct: endogenous in cells; host or cells: HeLa cell extract

[5] = molecular target: T5, HeLa cell extract proteins (Homo sapiens, UniProt P12004)
T5 construct: endogenous in cells; host or cells: HeLa cell extract

[6] = molecular target: T6, HeLa cell extract proteins (Homo sapiens, UniProt Q99497)
T6 construct: endogenous in cells; host or cells: HeLa cell extract
T6 sequence (Q99497 1-189): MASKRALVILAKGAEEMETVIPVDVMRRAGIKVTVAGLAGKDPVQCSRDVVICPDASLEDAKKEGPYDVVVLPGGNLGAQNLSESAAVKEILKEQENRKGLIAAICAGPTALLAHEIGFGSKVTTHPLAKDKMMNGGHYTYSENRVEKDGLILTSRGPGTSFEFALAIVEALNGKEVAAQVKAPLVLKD

[7] = molecular target: T7, HeLa cell extract proteins (Homo sapiens, UniProt P56381)
T7 construct: endogenous in cells; host or cells: HeLa cell extract
T7 sequence (P56381 1-51): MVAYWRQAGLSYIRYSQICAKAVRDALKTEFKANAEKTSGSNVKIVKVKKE

[8] = molecular target: T8, HeLa cell extract proteins (Homo sapiens, UniProt P12956)
T8 construct: endogenous in cells; host or cells: HeLa cell extract

[9] = molecular target: T9, HeLa cell extract proteins (Homo sapiens, UniProt Q9NQX3)
T9 construct: endogenous in cells; host or cells: HeLa cell extract
T9 sequence (Q9NQX3 1-736): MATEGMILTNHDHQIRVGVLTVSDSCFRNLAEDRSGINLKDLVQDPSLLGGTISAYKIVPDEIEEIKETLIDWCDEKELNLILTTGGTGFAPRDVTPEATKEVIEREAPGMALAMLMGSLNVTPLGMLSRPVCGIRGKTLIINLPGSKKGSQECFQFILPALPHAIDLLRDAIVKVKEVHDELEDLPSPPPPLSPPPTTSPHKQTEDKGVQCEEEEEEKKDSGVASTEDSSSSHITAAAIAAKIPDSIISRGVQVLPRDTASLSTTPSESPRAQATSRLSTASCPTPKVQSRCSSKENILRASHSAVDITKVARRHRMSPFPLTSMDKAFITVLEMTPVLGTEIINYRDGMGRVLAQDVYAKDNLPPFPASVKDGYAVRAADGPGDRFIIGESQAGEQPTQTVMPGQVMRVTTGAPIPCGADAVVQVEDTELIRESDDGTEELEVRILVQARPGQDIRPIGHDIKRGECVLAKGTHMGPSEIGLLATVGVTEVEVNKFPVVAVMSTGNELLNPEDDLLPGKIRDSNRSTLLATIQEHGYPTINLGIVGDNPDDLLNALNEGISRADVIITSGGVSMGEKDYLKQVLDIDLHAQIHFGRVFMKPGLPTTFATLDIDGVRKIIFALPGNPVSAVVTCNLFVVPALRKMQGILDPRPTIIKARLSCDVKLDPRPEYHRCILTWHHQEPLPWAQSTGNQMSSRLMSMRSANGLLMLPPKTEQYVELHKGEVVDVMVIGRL

[10] = molecular target: T10, HeLa cell extract proteins (Homo sapiens, UniProt P21359)
T10 construct: endogenous in cells; host or cells: HeLa cell extract

[11] = HeLa, protein PPIB (PEPT[…] B PRECURSOR.)
[12] = HeLa, protein DJ-1 (PROTEIN DJ-1.)

T5 sequence (P12004 whole entry): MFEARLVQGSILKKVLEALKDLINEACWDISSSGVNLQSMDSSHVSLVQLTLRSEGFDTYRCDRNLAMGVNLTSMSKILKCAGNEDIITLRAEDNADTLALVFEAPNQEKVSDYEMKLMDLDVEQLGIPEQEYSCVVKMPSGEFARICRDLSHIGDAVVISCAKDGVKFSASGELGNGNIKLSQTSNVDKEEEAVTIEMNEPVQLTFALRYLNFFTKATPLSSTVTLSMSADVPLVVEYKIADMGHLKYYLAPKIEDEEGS
T8 sequence (P12956 whole entry): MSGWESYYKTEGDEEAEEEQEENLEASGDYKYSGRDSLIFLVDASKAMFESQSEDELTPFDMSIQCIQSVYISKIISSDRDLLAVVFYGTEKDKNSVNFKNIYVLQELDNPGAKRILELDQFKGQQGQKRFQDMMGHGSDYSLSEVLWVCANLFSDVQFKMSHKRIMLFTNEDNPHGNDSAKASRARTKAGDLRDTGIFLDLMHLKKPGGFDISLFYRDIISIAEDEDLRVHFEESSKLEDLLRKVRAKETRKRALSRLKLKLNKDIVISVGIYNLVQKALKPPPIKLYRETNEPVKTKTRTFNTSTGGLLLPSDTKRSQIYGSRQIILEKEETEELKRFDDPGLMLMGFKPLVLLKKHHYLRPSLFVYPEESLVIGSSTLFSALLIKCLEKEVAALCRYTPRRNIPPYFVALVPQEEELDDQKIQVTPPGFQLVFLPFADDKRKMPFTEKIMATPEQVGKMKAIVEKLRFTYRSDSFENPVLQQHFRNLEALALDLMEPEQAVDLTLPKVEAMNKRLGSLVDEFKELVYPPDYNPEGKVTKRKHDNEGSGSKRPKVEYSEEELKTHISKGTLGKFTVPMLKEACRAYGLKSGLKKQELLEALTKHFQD
T10 sequence (P21359 whole entry): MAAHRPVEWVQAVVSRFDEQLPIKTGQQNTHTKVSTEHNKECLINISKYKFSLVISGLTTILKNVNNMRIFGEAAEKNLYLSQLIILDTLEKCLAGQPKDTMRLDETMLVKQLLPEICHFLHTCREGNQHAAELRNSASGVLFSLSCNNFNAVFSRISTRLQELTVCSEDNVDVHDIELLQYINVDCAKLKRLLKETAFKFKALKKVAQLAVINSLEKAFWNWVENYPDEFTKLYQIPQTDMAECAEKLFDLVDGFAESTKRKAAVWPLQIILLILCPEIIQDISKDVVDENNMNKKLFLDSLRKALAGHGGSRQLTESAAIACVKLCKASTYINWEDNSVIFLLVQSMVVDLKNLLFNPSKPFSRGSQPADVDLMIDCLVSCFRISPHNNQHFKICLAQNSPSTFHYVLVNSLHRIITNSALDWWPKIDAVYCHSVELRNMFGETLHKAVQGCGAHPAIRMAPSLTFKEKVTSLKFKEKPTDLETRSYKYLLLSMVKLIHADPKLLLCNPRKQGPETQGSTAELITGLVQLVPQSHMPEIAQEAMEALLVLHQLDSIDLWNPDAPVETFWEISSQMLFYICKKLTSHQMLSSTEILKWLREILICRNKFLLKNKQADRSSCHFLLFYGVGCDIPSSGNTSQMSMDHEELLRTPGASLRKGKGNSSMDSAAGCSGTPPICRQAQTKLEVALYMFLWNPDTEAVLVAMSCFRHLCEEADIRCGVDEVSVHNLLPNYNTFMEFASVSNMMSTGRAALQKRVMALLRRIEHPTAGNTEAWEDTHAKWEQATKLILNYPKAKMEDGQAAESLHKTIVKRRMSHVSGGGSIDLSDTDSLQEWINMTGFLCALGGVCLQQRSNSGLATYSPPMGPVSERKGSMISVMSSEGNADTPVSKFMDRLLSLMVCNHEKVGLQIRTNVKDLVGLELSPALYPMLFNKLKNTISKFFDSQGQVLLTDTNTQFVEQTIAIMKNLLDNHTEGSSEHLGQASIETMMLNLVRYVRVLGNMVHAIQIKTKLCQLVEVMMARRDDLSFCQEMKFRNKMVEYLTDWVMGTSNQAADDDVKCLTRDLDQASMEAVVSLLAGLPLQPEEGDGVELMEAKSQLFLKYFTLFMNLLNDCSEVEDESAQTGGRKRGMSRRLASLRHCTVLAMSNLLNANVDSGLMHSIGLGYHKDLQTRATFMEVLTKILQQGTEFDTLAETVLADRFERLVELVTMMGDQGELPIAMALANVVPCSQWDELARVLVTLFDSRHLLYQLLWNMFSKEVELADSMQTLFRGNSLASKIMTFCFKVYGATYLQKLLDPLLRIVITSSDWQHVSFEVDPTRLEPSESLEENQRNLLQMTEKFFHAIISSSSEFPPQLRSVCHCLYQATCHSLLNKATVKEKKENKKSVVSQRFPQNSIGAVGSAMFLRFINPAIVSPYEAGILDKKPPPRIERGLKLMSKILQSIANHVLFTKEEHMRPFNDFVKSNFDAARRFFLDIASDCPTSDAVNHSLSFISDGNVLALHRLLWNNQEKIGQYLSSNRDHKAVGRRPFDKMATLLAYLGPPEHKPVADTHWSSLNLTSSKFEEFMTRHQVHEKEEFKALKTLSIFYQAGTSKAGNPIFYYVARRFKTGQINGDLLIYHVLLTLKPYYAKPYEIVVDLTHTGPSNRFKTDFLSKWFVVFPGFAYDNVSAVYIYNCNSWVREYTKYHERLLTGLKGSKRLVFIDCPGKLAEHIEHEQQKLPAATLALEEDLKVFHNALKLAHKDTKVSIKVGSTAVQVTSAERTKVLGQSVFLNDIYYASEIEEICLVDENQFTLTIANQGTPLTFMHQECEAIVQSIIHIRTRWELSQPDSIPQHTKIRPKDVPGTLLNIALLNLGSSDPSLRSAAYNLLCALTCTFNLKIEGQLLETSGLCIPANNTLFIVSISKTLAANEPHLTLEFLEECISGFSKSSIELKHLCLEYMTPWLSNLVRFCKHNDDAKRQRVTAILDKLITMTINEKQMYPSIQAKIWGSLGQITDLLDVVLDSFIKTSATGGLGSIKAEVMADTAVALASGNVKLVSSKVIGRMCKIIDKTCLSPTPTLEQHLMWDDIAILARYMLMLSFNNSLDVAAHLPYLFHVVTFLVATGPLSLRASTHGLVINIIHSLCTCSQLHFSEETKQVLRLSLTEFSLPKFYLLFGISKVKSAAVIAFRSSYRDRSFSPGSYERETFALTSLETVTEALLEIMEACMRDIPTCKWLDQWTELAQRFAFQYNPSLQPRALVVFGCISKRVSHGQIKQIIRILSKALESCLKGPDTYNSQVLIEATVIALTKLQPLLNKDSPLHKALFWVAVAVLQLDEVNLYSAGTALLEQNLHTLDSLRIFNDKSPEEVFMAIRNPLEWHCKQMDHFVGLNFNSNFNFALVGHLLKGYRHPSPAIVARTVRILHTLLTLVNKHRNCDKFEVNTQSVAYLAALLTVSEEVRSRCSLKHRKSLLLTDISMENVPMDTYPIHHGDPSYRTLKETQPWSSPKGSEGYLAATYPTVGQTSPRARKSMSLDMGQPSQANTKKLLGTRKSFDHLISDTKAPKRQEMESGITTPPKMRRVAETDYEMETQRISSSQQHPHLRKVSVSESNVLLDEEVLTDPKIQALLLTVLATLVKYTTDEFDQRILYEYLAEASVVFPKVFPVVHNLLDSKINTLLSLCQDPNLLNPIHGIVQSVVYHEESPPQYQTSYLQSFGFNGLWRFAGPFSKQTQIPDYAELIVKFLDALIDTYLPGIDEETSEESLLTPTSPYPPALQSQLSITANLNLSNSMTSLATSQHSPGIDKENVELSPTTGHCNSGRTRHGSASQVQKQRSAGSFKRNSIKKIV
T3 sequence (P23284 34-216): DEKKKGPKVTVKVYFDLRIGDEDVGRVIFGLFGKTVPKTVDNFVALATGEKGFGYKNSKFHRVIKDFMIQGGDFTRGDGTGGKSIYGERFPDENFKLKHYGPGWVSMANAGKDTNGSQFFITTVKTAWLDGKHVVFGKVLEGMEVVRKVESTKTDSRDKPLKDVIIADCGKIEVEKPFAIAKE

SMILES | fold changes relative to vehicle control ([1]; protein DARS, HeLa) | fold changes relative to vehicle control ([2]; HeLa, protein COPB1) | fold changes relative to vehicle control [3, 11] [fold] | fold changes relative to vehicle control ([4]; protein RAN, HeLa) | fold changes relative to vehicle control ([5]; protein PCNA, HeLa) | fold changes relative to vehicle control [6, 12] [fold] | fold changes relative to vehicle control ([7]; captured protein ATP5E, HeLa) | fold changes relative to vehicle control ([8]; protein XRCC6, HeLa) | fold changes relative to vehicle control ([9]; protein GPHN, HeLa) | fold changes relative to vehicle control ([10]; protein NF1, HeLa) | fold changes relative to vehicle control ([1]; HeLa, protein DARS) | fold changes relative to vehicle control ([3]; HeLa, captured protein PPIB) | fold changes relative to vehicle control ([4]; HeLa, protein RAN) | fold changes relative to vehicle control ([5]; HeLa, captured protein PCNA) | fold changes relative to vehicle control ([6]; HeLa, captured protein DJ-1) | fold changes relative to vehicle control ([7]; HeLa, captured protein ATP5E) | fold changes relative to vehicle control ([8]; HeLa, protein XRCC6) | fold changes relative to vehicle control ([9]; HeLa, captured protein GPHN) | fold changes relative to vehicle control ([10]; HeLa, protein NF1) | further results
Nc1nc2cccc(-c3ccccc3)c2n1Cc1ccc(Cl)c(Cl)c1 [compound 3] | 0.93 | 1.17 | 1.25 | 0.93 | 0.77 | 0.85 | 0.92 | 0.92 | 0.96 | 1.06 |  |  |  |  |  |  |  |  |  | 
Nc1nc2[nH]cc(CCc3ccc(C(=O)N[C@@H](CCC(=O)O)C(=O)O)cc3)c2c(=O)[nH]1 [PTX, pemetrexed] |  |  |  |  |  |  |  |  |  |  |  |  |  |  |  |  |  |  |  | fold changes relative to vehicle control [1]: 0.98; fold changes relative to vehicle control [2]: 0.84; fold changes relative to vehicle control [3]: 1.11; fold changes relative to vehicle control [4]: 1; fold changes relative to vehicle control [5]: 1.29; fold changes relative to vehicle control [6]: 1.28; fold changes relative to vehicle control [7]: 1.34; fold changes relative to vehicle control [8]: 1.02; fold changes relative to vehicle control [9]: 0.83; fold changes relative to vehicle control [10]: 1.04
Nc1nc2c(c(=O)[nH]1)N(C=O)C(CNc1ccc(C(=O)N[C@@H](CCC(=O)O)C(=O)O)cc1)CN2 (stereo partly shown) [LEU, leucovorin] |  | 0.87 |  |  |  |  |  |  |  |  | 0.94 | 1 | 0.98 | 1.25 | 1.1 | 1.13 | 0.96 | 0.81 | 0.96 | 
CCCCCCOc1cccc(Cc2cnc(N)nc2N)c1 [compound 2] | 1.15 | 1.07 | 2.04 | 1.8 | 1.65 | 2.24 | 0.96 | 1.93 | 0.93 | 1.15 |  |  |  |  |  |  |  |  |  | 
NCCOCCOCC(=O)Nc1nc2ncc(CNc3ccc(C(=O)NC(CCC(=O)O)C(=O)O)cc3)nc2c(=O)[nH]1 (stereo not shown) [compound 6] |  | 0.92 |  |  |  |  |  |  |  |  | 0.99 | 1.49 | 1.11 | 1.47 | 1.36 | 1.39 | 1.09 | 0.99 | 1.18 | 
CCCCCCOc1ccc(Cc2cnc(N)nc2N)cc1 [compound 1] | 1.02 | 0.97 | 1.37 | 1.1 | 1.18 | 1.34 | 0.88 | 1.13 | 0.94 | 0.84 |  |  |  |  |  |  |  |  |  | 
NCCCNc1ccc(C(=O)NC(CCC(=O)O)C(=O)O)cc1 (stereo not shown) [compound 7] |  | 0.97 |  |  |  |  |  |  |  |  | 1.06 | 1.22 | 0.95 | 1.02 | 1.06 | 1.37 | 0.92 | 1.03 | 1.11 | 
